Results on 10 compounds are retold here after PubChem BioAssay (NCI).

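Step 1: Grow cells in 96-well plates. Step 2: Expose to compound for 48 hours at 5 concentrations. Step 3: Interpolate endpoints linearly; if unreached, use highest concentration. GI50 = concentration required for 50% inhibition of growth. Definition used: TGI = concentration required for complete inhibition of growth.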 Bounds are passed on as bounds.

Some test systems named below: M14 melanoma; IGROV1 ovarian; HOP-92 NSCLC; UO-31 renal; MDA-MB-435; HT29 colon; DU-145 prostate; OVCAR-4 ovarian; BT-549 breast; RXF 393 renal.
Assay in all cases: growth of human tumour cells (NCI), 48 h

Take `Cc1ccc(C)c2c1C(O)(C#Cc1ccccc1)c1ccccc1C2(O)C#Cc1ccccc1` (centres undefined): the GI50 in the assay with M14 melanoma is 3600 nM; with IGROV1 ovarian, 3.05 µM; with HOP-92 NSCLC, 2290 nM; with UO-31 renal, 1890 nM; in the assay on MDA-MB-435, 2420 nM; in the assay with HT29 colon, 2.96 µM. Further, the GI50 with DU-145 prostate was 3.32 µM; with OVCAR-4 ovarian, 3850 nM. The TGI is above 82.5 µM in the assay on M14 melanoma; 51.3 µM in the assay with IGROV1 ovarian; above 27.3 µM with HOP-92 NSCLC; 6.83 µM in the assay with UO-31 renal; 16.2 µM in the assay on MDA-MB-435; above 100 µM with HT29 colon. Moreover, the TGI with DU-145 prostate and with OVCAR-4 ovarian was above 100 µM each time.
Take `C=C1C(=O)O[C@H]2C[C@@H]1CC/C(C)=C/CC/C(C)=C/CC[C@H]2C`: the GI50 in the assay with M14 melanoma was 14200 nM; in the assay on IGROV1 ovarian, 18.8 µM; with BT-549 breast, 17100 nM; in the assay with UO-31 renal, 1120 nM; in the assay on MDA-MB-435, 7510 nM; with RXF 393 renal it was 9.67 µM. Moreover, the GI50 with HT29 colon is 28.3 µM; in the assay on DU-145 prostate it was 18 µM. The TGI in the assay on M14 melanoma is 29.3 µM; with IGROV1 ovarian it was 40 µM; in the assay on BT-549 breast it was 41.5 µM; in the assay on UO-31 renal it was 4.02 µM; in the assay with MDA-MB-435 it was 27.2 µM; in the assay on RXF 393 renal, 27.7 µM. Further, the TGI in the assay with HT29 colon is above 100 µM; with DU-145 prostate it was 33.5 µM.
Take `C=C(c1ccc2nc(NC(=O)OC)[nH]c2c1)c1cccs1`: the TGI in the assay on M14 melanoma was above 100 µM; in the assay on IGROV1 ovarian, above 100 µM; in the assay on BT-549 breast, above 100 µM; in the assay on HOP-92 NSCLC, above 31 µM; with UO-31 renal, above 62.4 µM; in the assay with RXF 393 renal, above 100 µM. Besides, the TGI in the assay with HT29 colon, in the assay on DU-145 prostate and in the assay with OVCAR-4 ovarian was above 100 µM throughout.
For the compound `CC(C)=CCc1c(OC(=O)c2c(C)cc(O)cc2O)cc(CO)c(CO)c1O`, the TGI in the assay on M14 melanoma was 44.7 µM; in the assay on IGROV1 ovarian it was 62.2 µM; with BT-549 breast, 41 µM; in the assay with HOP-92 NSCLC, 52.3 µM; in the assay with UO-31 renal it was 34.4 µM; in the assay with MDA-MB-435 it was 45.9 µM. Besides, the values for the TGI in the assay with HT29 colon, in the assay on DU-145 prostate and with OVCAR-4 ovarian were 42.6 µM, 70.4 µM and 38.2 µM, respectively.
For the compound `Oc1[nH]c2ccccc2c1N=Nc1ccccn1`, the TGI in the assay on M14 melanoma was above 100 µM; with IGROV1 ovarian, 90.7 µM; in the assay on BT-549 breast, above 100 µM; in the assay with UO-31 renal it was 33.7 µM; in the assay on MDA-MB-435, above 100 µM; in the assay on RXF 393 renal, above 100 µM. Further, the TGI with HT29 colon is 55.5 µM; in the assay with DU-145 prostate, above 100 µM; with OVCAR-4 ovarian, 45.6 µM.
Take `COC(=O)c1c2c(c[n+]([O-])c1C)C(=O)C=CC2=O`: the GI50 is 1870 nM in the assay with M14 melanoma; 2.11 µM in the assay on IGROV1 ovarian; 1780 nM in the assay on BT-549 breast; 2840 nM with HOP-92 NSCLC; 1520 nM in the assay with UO-31 renal; 1680 nM in the assay with MDA-MB-435. Also, the GI50 with HT29 colon was 4.1 µM; in the assay with DU-145 prostate it was 1.85 µM; in the assay with OVCAR-4 ovarian, 1440 nM. In addition, the TGI in the assay with M14 melanoma came to 3.69 µM; with IGROV1 ovarian, 4.54 µM; with BT-549 breast it was 3.23 µM; with HOP-92 NSCLC, 9.06 µM; with UO-31 renal it was 3.03 µM; in the assay on MDA-MB-435, 3.15 µM. Besides, the TGI was 56.3 µM in the assay on HT29 colon, 3.54 µM with DU-145 prostate and 2.83 µM in the assay with OVCAR-4 ovarian.
Regarding `COc1ccc2c(c1)C(=O)c1c-2n(CCCN=[N+]=[N-])c(=O)c2cc(OC)c(OC)cc12`, the GI50 with IGROV1 ovarian was 16 µM; in the assay with BT-549 breast, above 100000 nM; in the assay on HOP-92 NSCLC it was 9130 nM; in the assay with UO-31 renal, 44300 nM; in the assay on MDA-MB-435, above 100000 nM; in the assay with HT29 colon, above 100 µM. In addition, the GI50 is 26.6 µM with DU-145 prostate and above 100000 nM with OVCAR-4 ovarian. Also, the TGI in the assay on IGROV1 ovarian was above 100 µM; in the assay with BT-549 breast, above 100 µM; in the assay with HOP-92 NSCLC, 44.6 µM; in the assay with UO-31 renal it was above 100 µM; in the assay with MDA-MB-435 it was above 100 µM; with HT29 colon, above 100 µM. Also, the TGI in the assay on DU-145 prostate and in the assay on OVCAR-4 ovarian was above 100 µM throughout.
As to `CC(C(=O)c1ccccc1)C(c1ccccc1)N1CCOCC1` (centres undefined), the TGI with M14 melanoma, in the assay on IGROV1 ovarian, in the assay on BT-549 breast, in the assay on HOP-92 NSCLC, in the assay on MDA-MB-435 and in the assay with RXF 393 renal was above 100 µM throughout. Further, the TGI in the assay with HT29 colon, with DU-145 prostate and in the assay with OVCAR-4 ovarian was above 100 µM throughout.
On to `CC(C)CCC(=O)c1ccoc1`, for which the TGI in the assay with M14 melanoma, in the assay with IGROV1 ovarian, in the assay on HOP-92 NSCLC, in the assay on UO-31 renal, with MDA-MB-435 and in the assay with RXF 393 renal was above 100 µM each time. For the same compound, the TGI with HT29 colon, in the assay with DU-145 prostate and in the assay on OVCAR-4 ovarian was above 100 µM throughout.
For `CO[C@H]1/C=C/O[C@@]2(C)Oc3c(C)c(O)c4c(c3C2=O)C(=O)C(/C=N/N(c2ccccc2)c2ccccc2)=C(NC(=O)/C(C)=C\C=C\[C@H](C)[C@H](O)[C@@H](C)[C@@H](O)[C@@H](C)[C@H](OC(C)=O)[C@@H]1C)C4=O`, the GI50 in the assay with M14 melanoma was 1790 nM; in the assay with IGROV1 ovarian, 2.13 µM; with BT-549 breast, 1610 nM; in the assay on HOP-92 NSCLC it was 1880 nM; with UO-31 renal, 1650 nM; in the assay with MDA-MB-435 it was 1680 nM. Besides, the GI50 is 1.93 µM in the assay on HT29 colon, 1.93 µM with DU-145 prostate and 1650 nM in the assay on OVCAR-4 ovarian. Moreover, the TGI in the assay on M14 melanoma stood at 3.49 µM; in the assay on IGROV1 ovarian, 4.23 µM; with BT-549 breast, 3.06 µM; with HOP-92 NSCLC, 3.52 µM; in the assay on UO-31 renal it was 3.21 µM; in the assay on MDA-MB-435, 3.09 µM. The TGI stood at 3.84 µM with HT29 colon, 3.51 µM in the assay with DU-145 prostate and 3.15 µM in the assay with OVCAR-4 ovarian.
